This note sets out measurements from US11649220B2 (DEMOTECH.INC., priority 2018, dated 2023).

The subject of assay [1] is Malondialdehyde (MDA) in serum. Briefly: In vivo anti-lipid oxidation experiment (serum MDA, TBA method). Further details: inhibition rate %: concentration or dose not given beside the values. The note with it: MAD lipid peroxidation in vivo; for inhibition rate %: relative to solvent DMSO and Chow averages; for avarage value of OD: serum, TBA method, 532 nm. From the text: Experimental principle: Malondialdehyde (MDA) in liposome degradation products could condense with thiobarbituric acid (TBA) to form a red product which has a maximum absorption peak at 532 nm. The spectrophotometer was used to measure the relative absorption value to calculate the antioxidant value.
Reagents: Malondialdehyde (MDA) test kit (article number: A003-1, […], Nanjing Jiancheng), glacial acetic acid of analytically pure grade.
Reagent preparations: 1) Reagent I: Reagent 1 in the kit was taken out from the refrigerator and subjected to natural warming until a transparent liquid is obtained; 2) Reagent II: 170 mL of double-distilled water was added to each bottle and mixed; 3) Reagent III: A dry powder in the kit was dissolved in 60 mL of double-distilled water at 90 to 100° C. After the dry powder was dissolved totally, 30 mL of glacial acetic acid was added and kept in dark place; 4) Standard: 10 nmol/mL tetraethoxypropane.
Experimental procedures: 1) Blank tube: To 2 mL centrifuge tube were added anhydrous ethanol (70 μl), Reagent I (70 μl), Reagent II (0.8 mL) and Reagent III (0.8 mL) in sequence; 2) Standard tube: To 2 mL centrifuge tube were added standard (70 μl), Reagent I (70 μl), Reagent 11 (0.8 mL) and Reagent III (0.8 mL) in sequence; 3) Measuring tube: To 2 mL centrifuge tube were added the serum to be tested and physiological saline (the total volume of serum and physiological saline is 70 μl), Reagent I (70 μl), Reagent II (0.8 mL) and Reagent III (0.8 mL) in sequence; 4) Control tubes: all samples are set up with corresponding control tubes. To a 2 mL centrifuge tube were added the serum to be tested and physiological saline (the total volume of serum and physiological saline is 70 μl), Reagent I (70 μl), Reagent II (0.8 mL) and 50% glacial acetic acid (0.8 mL) in sequence.
After the above reagents were added, the mixture was mixed homogenously. Then the mixture was left in the water bath at 95° C. for 60 minutes. The sample was centrifuged at 4000 rpm for 10 minutes. The supernatant was taken for the measurement of the OD value.
Experimental data processing: the MDA content in serum was calculated as follows: MDA=(OD valuemeasured−OD valuecontrol)/OD valuestandard*concentration of the standard Inhibition rate %=100−(ODsample-average value−average value of Chow)/(average value of the solvent DMSO−average value of Chow)*100

Assay [2] in a line: In vitro free radical inhibition test (DPPH method). The note with it: 8 μL of 20 mmol/L compound in 1 mL DPPH 0.059 mg/mL ethanol, 60 min dark, 517 nm; for inhibition rate %: DPPH; for Relative inhibition ability on free radicals: inhibition rate of AGI1067 on DPPH defined as 100. From the text: 1. In Vitro Free Radical Inhibition Test (DPPH Method)
The single electron of DPPH radical has a strong absorption at […], and its alcohol solution is purple. In the presence of a free radical scavenger, the absorption of DPPH radical is weakened or disappeared for the reason that the free radical scavenger is paired with the single electron of DPPH radical, and the degree of discoloration is quantitatively related to the number of electrons DPPH radical receives. Therefore, a spectrophotometer can be used to quickly and quantitatively analyze the free radical scavenging rate of the compound.
1) 1 mL solution of DPPH in absolute ethanol (concentration: 0.059 mg/mL) was taken; 2) 8 μL of the compound to be tested (20 mmol/L) were added; 3) after mixing well, the resultant was kept in dark at room temperature for 60 minutes, 4) the absorbance of the sample at 517 nm was measured.
A general note: DPPH is a stable violet radical that fades when it is reduced.

Assay [3] relates to golden hamsters (60% high-fat food, STZ induced). Nature of the assay: Golden hamster disease model, animal model induction group (16-week-old group): blood biochemical indexes and body weight. In kind it is in vivo. As for the experimental part:
Animals and feed: 1) 8-week-old male golden hamsters with a body weight range of 100±5 g were selected; 2) 60% high-fat food; 3) 30% high-fat food; 4) general feed: NRC standard feed, containing 5% fat, total calories 4200 kcal/kg.
Animal model induction group (16-week-old group): 1) fed with 60% high-fat food for 2 weeks under standard environment; 2) STZ intraperitoneal injection twice every two days, 50 mg/kg each time; 3) After STZ induction, the golden hamsters were continuous fed for 1 week; 4) Blood was taken from the ocular venous plexus, and the initial body weight, blood glucose, total cholesterol, LDL-c, HDL-c and triglyceride were measured, and the golden hamsters were grouped in parallel according to animal biochemical indicators, 8 in each group; 5) Gavage of compounds: 0.1 mL of solution of compound (concentration: 6.8 mg/mL, DMSO solution) and 0.25 mL of whole milk were mixed evenly and administrated by gavage once a day for 2 weeks; 6) Blank control: 0.1 mL of DMSO and 0.25 mL of whole milk were mixed evenly and administrated by gavage once a day for 2 weeks; 7) Observation time: 14 days later, blood was taken from the ocular venous plexus, and the body weight, blood glucose, total cholesterol, LDL-c, HDL-c and triglyceride were measured.
Instruments: Shimadzu UV-1750 spectrophotometer, clinical determination kit (Changchun Huili Biotechnology Co., Ltd.)
Determination of blood glucose: glucose oxidase method, kit
Determination of total cholesterol (COD-PAP method), kit
Determination of low density lipoprotein cholesterol (direct method), kit
Determination of triglyceride (GP-PAP method)
Determination of high density lipoprotein (direct method), kit

[4] abbreviates: after gavage once a day for 2 weeks.
Setting [5] is: change rate, gavage once a day for 2 weeks.

Consider `COC(=O)CSC(C)(C)Sc1cc(C(C)(C)C)c(O)c(C(C)(C)C)c1` [Compound 1, methyl 2-((2-((3,5-di-tert-butyl-4-hydroxyphenyl)thio)propan-2-yl)thio)acetate], for which, in assay [1], the inhibition rate % turned out to be 54.1% and the “avarage value of OD” value stood at 7.20.

For the compound `CC(C)(SCC(=O)O)Sc1cc(C(C)(C)C)c(O)c(C(C)(C)C)c1` [Compound 2, 2-((2-((3,5-di-tert-butyl-4-hydroxyphenyl)thio)propan-2-yl)thio)acetic acid], in assay [2], the inhibition rate % is reported as 27.1% and the “Relative inhibition ability on free radicals” value stood at 62.1. Besides, in assay [1], the inhibition rate % is listed as 73.5% and the “avarage value of OD” value is listed as 6.45.

On to `CCOC(=O)CCSC(C)(C)Sc1cc(C(C)(C)C)c(O)c(C(C)(C)C)c1` [Compound 3, ethyl 3-((2-((3,5-di-tert-butyl-4-hydroxyphenyl)thio)propan-2-yl)thio)propionate], for which, in assay [2], the inhibition rate % was 43.7% and the “Relative inhibition ability on free radicals” value is 100.2. In assay [1], the inhibition rate % is listed as 34.9% and the “avarage value of OD” value is 7.94.

With `CC(C)(SCCC(=O)O)Sc1cc(C(C)(C)C)c(O)c(C(C)(C)C)c1` [Compound 4, 3-((2-((3,5-di-tert-butyl-4-hydroxyphenyl)thio)propan-2-yl)thio)propanoic acid], in assay [2], the inhibition rate % was 24.1% and the “Relative inhibition ability on free radicals” value turned out to be 55.2. For the same compound, in assay [1], the inhibition rate % worked out at 84.4% and the “avarage value of OD” value is on record as 6.03.

For the compound `CC(C)(C)c1cc(SSc2cc(C(C)(C)C)c(O)c(C(C)(C)CCO)c2)cc(C(C)(C)C)c1O` [Compound 6, 2,6-di-tert-butyl-4-((3-(tert-butyl)-4-hydroxy-5-(4-hydroxy-2-methylbutan-2-yl)phenyl)disulfanediyl)phenol], in assay [2], the inhibition rate % is 53.2% and the “Relative inhibition ability on free radicals” value amounted to 95.2. Besides, in assay [1], the inhibition rate % came to 71.2% and the “avarage value of OD” value was 6.54.

Regarding `COc1cc(SC(C)(C)Sc2ccc(O)c(OC)c2)ccc1O` [Compound 7, 4,4′-(propane-2,2-diylbis(thio))bis(2-methoxyphenol)], in assay [2], the inhibition rate % was determined as 73.9% and the “Relative inhibition ability on free radicals” value was 169.4. Moreover, in assay [1], the inhibition rate % is 47.6% and the “avarage value of OD” value is reported as 7.45.

In the case of `CC(C)(Sc1cc(C(C)(C)C)c(O)c(C(C)(C)CCO)c1)Sc1cc(C(C)(C)C)c(O)c(C(C)(C)CCO)c1` [Compound 9, 4,4′-(propane-2,2-diylbis(thio))bis(2-(tert-butyl)-6-(4-hydroxy-2-methylbutan-2-yl)phenol)], in assay [2], the inhibition rate % is listed as 55.1% and the “Relative inhibition ability on free radicals” value is 126.3. Also, in assay [1], the inhibition rate % worked out at 62.9% and the “avarage value of OD” value is recorded as 6.86.

As to `CC(C)(Sc1cc(C(C)(C)C)c(O)c(C(C)(C)C)c1)Sc1cc(C(C)(C)C)c2c(c1)C(C)(C)CCO2` [Compound 10, 2,6-di-tert-butyl-4-((2-((8-(tert-butyl)-4,4-dimethylchroman-6-yl)thio)propan-2-yl)thio)phenol], in assay [2], the inhibition rate % came to 41.1% and the “Relative inhibition ability on free radicals” value worked out at 94.1. Besides, in assay [1], the inhibition rate % came out at 47.6% and the “avarage value of OD” value worked out at 7.45.

As to `CC(=O)OCCC(C)(C)c1cc(SC(C)(C)Sc2cc(C(C)(C)C)c(O)c(C(C)(C)C)c2)cc(C(C)(C)C)c1O` [Compound 14, 3-(3-(tert-butyl)-5-((2-((3,5-di-tert-butyl-4-hydroxyphenyl)thio)propan-2-yl)thio)-2-hydroxyphenyl)-3-methylbutyl acetate], in assay [2], the inhibition rate % was 37.3% and the “Relative inhibition ability on free radicals” value was determined as 85.5. In assay [1], the inhibition rate % was 55.9% and the “avarage value of OD” value is reported as 7.13.

As to `CC(C)(Sc1cc(C(C)(C)C)c(O)c(C(C)(C)C)c1)Sc1cc(C(C)(C)C)c(O)c(C(C)(C)CCOC(=O)[C@H](c2ccccc2Cl)N2CCc3sccc3C2)c1` [Compound 15, (S)-3-(3-(tert-butyl)-5-((2-((3,5-di-tert-butyl-4-hydroxyphenyl)thio)propan-2-yl)thio)-2-hydroxyphenyl)-3-methylbutyl 2-(2-chlorophenyl)-2-(6,7-dihydrothieno[3,2-c]pyridin-5(4H)-yl)acetate], in assay [2], the inhibition rate % is 19.1% and the “Relative inhibition ability on free radicals” value came out at 43.8. Besides, in assay [1], the inhibition rate % was found to be 50.5% and the “avarage value of OD” value came out at 7.34.

Take `CC(C)(Sc1cc(C(C)(C)C)c(O)c(C(C)(C)C)c1)Sc1cc(C(C)(C)C)c(O)c(C(C)(C)CCN)c1` [Compound 16, 2-(4-amino-2-methylbutan-2-yl)-6-(tert-butyl)-4-((2-((3,5-di-tert-butyl-4-hydroxyphenyl)thio)propan-2-yl)thio)phenol]: in assay [2], the inhibition rate % is listed as 91.8% and the “Relative inhibition ability on free radicals” value amounted to 210.4. In assay [1], the inhibition rate % was determined as 25.0% and the “avarage value of OD” value was 8.32.

Turning to `CCN(CC)CCOCCC(C)(C)c1cc(SC(C)(C)Sc2cc(C(C)(C)C)c(O)c(C(C)(C)C)c2)cc(C(C)(C)C)c1O` [Compound 17, 2,6-di-tert-butyl-4-((2-((3-(tert-butyl)-5-(4-(2-(diethylamino)ethoxy)-2-methylbutan-2-yl)-4-hydroxyphenyl)thio)propan-2-yl)thio)phenol], in assay [2], the inhibition rate % is on record as 27.8% and the “Relative inhibition ability on free radicals” value is listed as 63.7. In assay [1], the inhibition rate % stood at 74.0% and the “avarage value of OD” value is recorded as 6.43.

In the case of `CC(C)(Sc1cc(C(C)(C)C)c(O)c(C(C)(C)C)c1)Sc1cc(C(C)(C)C)c(O)c(C(C)(C)C)c1` [Compound 30, probucol, reference compound], in assay [1], the inhibition rate % came to 53.3% and the “avarage value of OD” value came out at 7.23. For the same compound, the “change rate of blood glucose %” value in assay [3] (0.1 mL of 6.8 mg/mL DMSO solution + 0.25 mL whole milk by gavage once a day for 2 weeks) was −1.5%. Moreover, the “change rate of body weight after deduction of DMSO blank %” value in assay [3] (DMSO blank deducted) was −4.1%. For the same compound, in assay [3] (setting [4]), the “average body weight after administration/g” value worked out at 141.3 g, the “change of body weight/g” value was determined as 7.6 g and the “change rate of body weight %” value is on record as 5.7%. Besides, in assay [3] (setting [5]), the HDL % is 63.3%, the LDL % is on record as −12.2%, the total cholesterol % is given as 8.7% and the triglyceride % is recorded as −6.5%.
